Source: ChEMBL document CHEMBL5113511, “Discovery of Small-Molecule Degraders of the CDK9-Cyclin T1 Complex for Targeting Transcriptional Addiction in Prostate Cancer” (J Med Chem, 2022)
Active and inactive are the calls of the source. No cut-off for these calls is given here.

Key:
[1] = target: T1, Cyclin-dependent kinase 9 (Homo sapiens, UniProt P50750); assay: Induction of HyT-mediated degradation of CDK9 in human 22Rv1 cells at 0.3 to 3 uM incubated for 24 hrs by immunoblot analysis; type: cell-based; settings: dose 0.3-3 µM
T1 sequence (P50750 whole entry): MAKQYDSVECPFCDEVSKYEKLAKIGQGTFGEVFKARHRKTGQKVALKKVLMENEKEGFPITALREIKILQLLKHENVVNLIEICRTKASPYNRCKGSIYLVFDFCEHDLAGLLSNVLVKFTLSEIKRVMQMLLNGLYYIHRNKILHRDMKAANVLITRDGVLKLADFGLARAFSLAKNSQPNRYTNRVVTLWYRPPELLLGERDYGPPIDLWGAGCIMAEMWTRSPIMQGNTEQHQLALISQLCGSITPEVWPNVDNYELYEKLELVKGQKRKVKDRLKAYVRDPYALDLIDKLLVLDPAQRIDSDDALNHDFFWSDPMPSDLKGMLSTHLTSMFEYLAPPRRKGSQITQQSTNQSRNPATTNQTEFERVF

[2] = target: T2, Cyclin-T1 (Homo sapiens, UniProt O60563); assay: Induction of HyT-mediated degradation of Cyclin T1 in human 22Rv1 cells at 0.3 to 3 uM incubated for 24 hrs by immunoblot analysis; type: cell-based; settings: dose 0.3-3 µM
T2 sequence (O60563 whole entry): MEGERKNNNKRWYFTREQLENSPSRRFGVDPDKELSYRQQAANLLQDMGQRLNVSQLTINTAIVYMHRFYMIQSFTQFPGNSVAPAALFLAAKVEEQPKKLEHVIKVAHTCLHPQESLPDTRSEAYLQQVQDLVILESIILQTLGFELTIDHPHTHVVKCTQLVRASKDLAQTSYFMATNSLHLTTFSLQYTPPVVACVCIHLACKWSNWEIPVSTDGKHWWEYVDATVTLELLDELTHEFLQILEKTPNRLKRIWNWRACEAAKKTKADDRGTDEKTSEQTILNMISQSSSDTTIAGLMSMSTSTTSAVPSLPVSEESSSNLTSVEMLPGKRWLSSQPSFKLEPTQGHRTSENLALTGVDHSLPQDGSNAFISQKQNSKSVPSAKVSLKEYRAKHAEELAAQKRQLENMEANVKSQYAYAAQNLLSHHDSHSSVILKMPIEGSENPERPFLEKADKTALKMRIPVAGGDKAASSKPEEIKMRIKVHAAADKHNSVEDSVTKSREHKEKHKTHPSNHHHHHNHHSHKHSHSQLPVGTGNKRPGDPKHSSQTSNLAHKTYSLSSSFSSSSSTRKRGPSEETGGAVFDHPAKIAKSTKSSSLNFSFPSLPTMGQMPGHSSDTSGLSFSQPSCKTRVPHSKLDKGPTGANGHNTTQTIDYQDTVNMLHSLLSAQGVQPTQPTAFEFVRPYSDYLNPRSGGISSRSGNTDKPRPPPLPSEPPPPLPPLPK

[3] = target: T1, Cyclin-dependent kinase 9; assay: Induction of HyT-mediated degradation of CDK9 in human 22Rv1 cells incubated for 24 hrs by immunoblot analysis; type: cell-based
[4] = target: T2, Cyclin-T1; assay: Induction of HyT-mediated degradation of Cyclin T1 in human 22Rv1 cells incubated for 24 hrs by immunoblot analysis; type: cell-based
[5] = target: G1/S-specific cyclin-E1 (Homo sapiens) (UniProt P24864); assay: Induction of HyT-mediated degradation of cyclin E1 in human 22Rv1 cells assessed as reduction in cyclin E1 level at 6 uM incubated for 24 hrs by immunoblot analysis; type: cell-based
Chain of G1/S-specific cyclin-E1 (Homo sapiens) (P24864 whole entry): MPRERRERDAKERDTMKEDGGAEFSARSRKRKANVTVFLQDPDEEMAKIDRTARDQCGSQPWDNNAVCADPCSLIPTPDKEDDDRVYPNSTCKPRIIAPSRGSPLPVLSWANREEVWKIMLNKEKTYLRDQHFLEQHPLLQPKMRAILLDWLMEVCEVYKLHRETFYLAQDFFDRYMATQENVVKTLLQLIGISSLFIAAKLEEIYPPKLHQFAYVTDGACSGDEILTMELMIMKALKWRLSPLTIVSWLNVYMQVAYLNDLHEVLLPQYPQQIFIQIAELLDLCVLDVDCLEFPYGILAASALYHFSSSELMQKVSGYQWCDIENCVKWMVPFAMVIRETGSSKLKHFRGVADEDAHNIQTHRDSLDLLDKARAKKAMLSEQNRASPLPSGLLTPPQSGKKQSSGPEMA

[6] = target: T2, Cyclin-T1; assay: Induction of Hyt-mediated degradation of cyclin T1 in human 22Rv1 cells assessed as downregulation of cyclin T1 level at 2 uM incubated for 24 hrs by DIA-based proteomics analysis; type: cell-based
[7] = target: Glycogen synthase kinase-3 alpha (Homo sapiens) (UniProt P49840); assay: Induction of Hyt-mediated degradation of GSK3A in human 22Rv1 cells assessed as downregulation of GSK3A protein level at 2 uM incubated for 24 hrs by DIA-based proteomics analysis; type: cell-based
Chain of Glycogen synthase kinase-3 alpha (Homo sapiens) (P49840 2-483 limits assumed): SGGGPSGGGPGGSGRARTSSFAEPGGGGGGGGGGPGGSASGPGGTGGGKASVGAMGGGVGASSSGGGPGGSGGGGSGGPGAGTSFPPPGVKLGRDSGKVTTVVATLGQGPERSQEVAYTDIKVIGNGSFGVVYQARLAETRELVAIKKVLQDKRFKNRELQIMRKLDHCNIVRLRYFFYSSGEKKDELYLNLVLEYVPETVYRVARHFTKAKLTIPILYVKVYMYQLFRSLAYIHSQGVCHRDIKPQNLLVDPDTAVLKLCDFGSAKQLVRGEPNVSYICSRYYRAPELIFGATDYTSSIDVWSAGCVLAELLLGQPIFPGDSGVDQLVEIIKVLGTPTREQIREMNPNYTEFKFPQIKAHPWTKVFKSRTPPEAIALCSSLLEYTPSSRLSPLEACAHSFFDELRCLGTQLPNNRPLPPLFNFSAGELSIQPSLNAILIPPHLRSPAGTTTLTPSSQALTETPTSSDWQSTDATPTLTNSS

[8] = target: T1, Cyclin-dependent kinase 9; assay: Induction of Flag-tagged CDK9 (unknown origin) polyubiquitination expressed in HEK293T cells co-transfected with HA-tagged Cyclin T1 and Myc ubiquitin assessed as increase in K48-linkage poly-ubiqutinated CDK9 level at 1 to 2 uM incubated for 20 hrs by immunoprecipitation analysis; type: cell-based; settings: dose 1-2 µM
[9] = target: T2, Cyclin-T1; assay: Induction of HA-tagged Cyclin T1 (unknown origin) polyubiquitination expressed in HEK293T cells co-transfected with Flag-tagged CDK9 and Myc ubiquitin assessed as increase in K48-linkage poly-ubiqutinated Cyclin T1 level at 1 to 2 uM incubated for 20 hrs by immunoprecipitation analysis; type: cell-based; settings: dose 1-2 µM
[10] = system: CWR22R; assay: Downregulation of CDK4 level in human 22Rv1 cells at 3 uM measured after 12 hrs by DIA-based proteomics analysis; type: functional, cell-based
[11] = target: T2, Cyclin-T1; assay: Induction of HyT-mediated degradation of Cyclin T1 in human 22Rv1 cells at 3 uM measured for 36 hrs by DIA-based proteomics analysis; type: cell-based
[12] = target: T1, Cyclin-dependent kinase 9; assay: Induction of HyT-mediated degradation of CDK9 in human 22Rv1 cells assessed as reduction in CDK9 protein level at 3 uM measured after 24 to 48 hrs by immunoblot analysis; type: cell-based; settings: time 24-48 hrs
[13] = system: CWR22R; assay: Downregulation of CDK1 level in human 22Rv1 cells at 3 uM measured after 12 hrs by DIA-based proteomics analysis; type: functional, cell-based
[14] = target: Cyclin-dependent kinase 1 (Homo sapiens) (UniProt P06493); assay: Induction of CDK1 degradation in human 22Rv1 cells assessed as downregulation of CDK1 level at 3 uM measured after 12 hrs by DIA-based proteomics analysis; type: cell-based
Chain of Cyclin-dependent kinase 1 (Homo sapiens) (P06493 whole entry, looked up): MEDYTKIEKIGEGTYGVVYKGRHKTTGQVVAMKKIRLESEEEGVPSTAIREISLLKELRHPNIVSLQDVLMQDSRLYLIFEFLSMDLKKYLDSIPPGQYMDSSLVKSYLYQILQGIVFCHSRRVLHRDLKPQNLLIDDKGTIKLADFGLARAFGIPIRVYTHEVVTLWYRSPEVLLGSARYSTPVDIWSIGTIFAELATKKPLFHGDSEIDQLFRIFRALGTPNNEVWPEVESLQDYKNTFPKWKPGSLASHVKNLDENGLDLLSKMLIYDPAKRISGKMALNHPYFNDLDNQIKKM

[15] = target: Cyclin-dependent kinase 6 (Homo sapiens) (UniProt Q00534); assay: Induction of CDK6 degradation in human 22Rv1 cells assessed as downregulation of CDK6 level at 3 uM measured after 12 hrs by DIA-based proteomics analysis; type: cell-based
Chain of Cyclin-dependent kinase 6 (Homo sapiens) (Q00534 whole entry): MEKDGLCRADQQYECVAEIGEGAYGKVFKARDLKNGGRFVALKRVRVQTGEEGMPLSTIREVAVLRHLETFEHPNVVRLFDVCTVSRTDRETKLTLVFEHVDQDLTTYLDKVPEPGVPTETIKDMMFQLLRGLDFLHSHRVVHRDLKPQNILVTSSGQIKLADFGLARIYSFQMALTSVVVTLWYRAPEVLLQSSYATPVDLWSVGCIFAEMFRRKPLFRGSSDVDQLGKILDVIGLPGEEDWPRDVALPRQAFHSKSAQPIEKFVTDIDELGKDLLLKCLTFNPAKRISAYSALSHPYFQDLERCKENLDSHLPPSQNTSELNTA

[16] = system: CWR22R; assay: Downregulation of CDK7 level in human 22Rv1 cells at 3 uM measured after 12 hrs by DIA-based proteomics analysis; type: functional, cell-based
[17] = target: T3, CDK9/cyclin T1 (Homo sapiens) (UniProt O60563+P50750); assay: Induction of CDK9/Cyclin T1 degradation in human 22Rv1 cells assessed as decrease in cyclin A2 protein expression at 3 uM measured for 36 hrs by DIA-based proteomics analysis; type: cell-based
[18] = target: T3, CDK9/cyclin T1 (Homo sapiens); assay: Induction of CDK9/Cyclin T1 degradation in human 22Rv1 cells assessed as decrease in cyclin D1 protein expression at 3 uM measured for 36 hrs by DIA-based proteomics analysis; type: cell-based
[19] = target: T3, CDK9/cyclin T1 (Homo sapiens); assay: Induction of CDK9/Cyclin T1 degradation in human 22Rv1 cells assessed as downregulation of JMJD6 protein expression at 2 uM measured after 24 hrs by immunoblot analysis; type: cell-based
[20] = target: T3, CDK9/cyclin T1 (Homo sapiens); assay: Induction of CDK9/Cyclin T1 degradation in human 22Rv1 cells assessed as downregulation of AR protein expression at 2 uM measured after 48 hrs by immunoblot analysis relative to control; type: cell-based
[21] = target: T3, CDK9/cyclin T1 (Homo sapiens); assay: Induction of CDK9/Cyclin T1 degradation in human 22Rv1 cells assessed as downregulation of AR-V7 splice variant protein expression at 2 uM measured after 48 hrs by immunoblot analysis relative to control; type: cell-based
[22] = target: T3, CDK9/cyclin T1 (Homo sapiens); assay: Induction of CDK9/Cyclin T1 degradation in human 22Rv1 cells assessed as downregulation of AR protein expression at 0.3 to 3 uM measured after 24 hrs by immunoblot analysis; type: cell-based; settings: dose 0.3-3 µM
[23] = target: T3, CDK9/cyclin T1 (Homo sapiens); assay: Induction of CDK9/Cyclin T1 degradation in human 22Rv1 cells assessed as downregulation of AR-V7 splice variant protein expression at 0.3 to 3 uM measured after 24 hrs by immunoblot analysis; type: cell-based; settings: dose 0.3-3 µM
[24] = system: CWR22R; assay: Antiproliferative activity against human 22Rv1 cells assessed as reduction in cell viability measured after 5 days by CellTiter-Glo assay; type: functional, cell-based; settings: 22Rv1, 120 h
[25] = system: CWR22R; assay: Inhibition of colony formation in human 22Rv1 cells at 100 to 200 nM treated for 14 days with replacement with fresh medium containing compound for every 48 hrs by crystal violet staining based analysis; type: functional, cell-based; settings: dose 100-200 nM, time 14.0 day
[26] = target: T3, CDK9/cyclin T1 (Homo sapiens); assay: Induction of CDK9/Cyclin T1 degradation in human 22Rv1 cells assessed as downregulation of CDK20 gene expression at 2 uM incubated for 24 hrs by RNA-Seq based analysis; type: cell-based
[27] = target: T3, CDK9/cyclin T1 (Homo sapiens); assay: Induction of CDK9/Cyclin T1 degradation in human 22Rv1 cells assessed as downregulation of VIM gene expression at 2 uM incubated for 24 hrs by RNA-Seq based analysis; type: cell-based
[28] = target: T3, CDK9/cyclin T1 (Homo sapiens); assay: Induction of CDK9/Cyclin T1 degradation in human 22Rv1 cells assessed as downregulation of BTG1 gene expression at 2 uM incubated for 24 hrs by RNA-Seq based analysis; type: cell-based
[29] = target: T3, CDK9/cyclin T1 (Homo sapiens); assay: Induction of CDK9/Cyclin T1 degradation in human 22Rv1 cells assessed as downregulation of KLK15 gene expression at 2 uM incubated for 24 hrs by RNA-Seq based analysis; type: cell-based
[30] = target: T3, CDK9/cyclin T1 (Homo sapiens); assay: Induction of CDK9/Cyclin T1 degradation in human 22Rv1 cells assessed as downregulation of MYCL gene expression at 2 uM incubated for 24 hrs by RNA-Seq based analysis; type: cell-based
[31] = target: T3, CDK9/cyclin T1 (Homo sapiens); assay: Induction of CDK9/Cyclin T1 degradation in human 22Rv1 cells assessed as downregulation of WNT2 gene expression at 2 uM incubated for 24 hrs by RNA-Seq based analysis; type: cell-based
[32] = target: T3, CDK9/cyclin T1 (Homo sapiens); assay: Induction of CDK9/Cyclin T1 degradation in human 22Rv1 cells assessed as downregulation of CCNE2 gene expression at 2 uM incubated for 24 hrs by RNA-Seq based analysis; type: cell-based
[33] = target: T3, CDK9/cyclin T1 (Homo sapiens); assay: Induction of CDK9/Cyclin T1 degradation in human 22Rv1 cells assessed as downregulation of NOTCH1 gene expression at 2 uM incubated for 24 hrs by RNA-Seq based analysis; type: cell-based

With `CC(C)[C@@H]1CC[C@@H](C)C[C@H]1OCC(=O)NCCS(=O)(=O)N1CCC(C(=O)Nc2ncc(SCc3ncc(C(C)(C)C)o3)s2)CC1` the Activity [1] was “Active”, the Activity [2] was “Active” and the DC50 [3] was 662 nM. The DC50 [4] was 589 nM, the Activity [5] was “Active” and the Activity [6] was “Active”. For the same molecule, the Activity [7] was “Active”, the Activity [8] was “Active” and the Activity [9] was “Active”. For the same molecule, the inhibition [10] was “Active”, the Activity [11] was “Active” and the Activity [12] was “Active”. The inhibition [13] was “Active”, the Activity [14] was “Active” and the Activity [15] was “Active”. The inhibition [16] was “Active”, the Activity [17] was “Active” and the Activity [18] was “Active”. The Activity [19] was “Active”, the Activity [20] was 100% and the Activity [21] was 100%. For the same molecule, the Activity [22] was “Active”, the Activity [23] was “Active” and the IC50 [24] was 95 nM. For the same molecule, the inhibition [25] was “Active”, the Activity [26] was “Active” and the Activity [27] was “Active”. For the same molecule, the Activity [28] was “Active”, the Activity [29] was “Active” and the Activity [30] was “Active”. The Activity [31] was “Active”, the Activity [32] was “Active” and the Activity [33] was “Active”.
